Legend:
Assay type in all cases: cell-based
SGK1 = biological target: T1, SGK1 (Homo sapiens, UniProt O00141); assay: SGK1 protein level in HEK293 cells, immunoblot; conditions: HEK293, 48 h
T1 sequence (O00141 1-431): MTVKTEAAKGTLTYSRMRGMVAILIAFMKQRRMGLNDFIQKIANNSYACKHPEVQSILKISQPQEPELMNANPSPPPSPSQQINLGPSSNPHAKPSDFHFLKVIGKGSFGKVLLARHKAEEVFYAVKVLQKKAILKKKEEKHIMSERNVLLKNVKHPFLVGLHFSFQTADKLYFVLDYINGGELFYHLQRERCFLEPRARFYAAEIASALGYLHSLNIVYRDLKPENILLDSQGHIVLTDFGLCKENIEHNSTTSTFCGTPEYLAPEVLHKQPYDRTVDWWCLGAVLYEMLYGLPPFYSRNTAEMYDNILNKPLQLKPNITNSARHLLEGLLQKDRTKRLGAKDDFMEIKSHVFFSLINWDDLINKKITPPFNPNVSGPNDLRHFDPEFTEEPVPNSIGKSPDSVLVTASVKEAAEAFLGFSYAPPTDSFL
Procedure: A medium length linker composed of three PEG units was used in the first instance (Figure 1B and C). […] After 48 h of PROTAC treatment, cell lysates were analyzed by immunoblot analysis, and protein expression under each condition was quantified relative to the DMSO-only control. […] DAT1 reduced SGK3 expression by 60% at 1 μM and 75% at 10 μM after 48 h (Figure 1D). […] As expected, inhibition of CUL2 neddylation by means of the inhibitor MLN4924 (3 μM) or proteasome inhibition (MG132, 50 μM) blocked DAT1-induced degradation of SGK3 (Figure S1C).
All cell treatments were carried out as described in figure legends, to a final DMSO concentration of 0.1% (v/v). Lysates were quantified. Immunoblotting was performed using standard procedures, described in brief below. Lysate concentration was quantified by Bradford Assay, and 10 μg of lysate was loaded in the LDS sample buffer for SDS-PAGE electrophoresis on Novex 4–12% Bis–Tris gels. Proteins were electrophoretically transferred onto nitrocellulose membranes (Amersham Protran 0.45 μm NC; GE Healthcare) at 80 V for 80 min on ice in transfer buffer. […] The signal was produced with near-infrared secondary antibodies and detected using a Licor Biosciences Odyssey System, and the signal was quantified in Image Studio Lite.

SGK3 = biological target: T2, SGK3 (Homo sapiens, UniProt Q96BR1); assay: SGK3 degradation in ZR-75-1 cells, immunoblot; conditions: for SGK3 expression: ZR-75-1, 5 days 1 μM GDC0941 or AZD5363, 0.3 μM for 5 days or 8 h
T2 sequence (Q96BR1 1-496): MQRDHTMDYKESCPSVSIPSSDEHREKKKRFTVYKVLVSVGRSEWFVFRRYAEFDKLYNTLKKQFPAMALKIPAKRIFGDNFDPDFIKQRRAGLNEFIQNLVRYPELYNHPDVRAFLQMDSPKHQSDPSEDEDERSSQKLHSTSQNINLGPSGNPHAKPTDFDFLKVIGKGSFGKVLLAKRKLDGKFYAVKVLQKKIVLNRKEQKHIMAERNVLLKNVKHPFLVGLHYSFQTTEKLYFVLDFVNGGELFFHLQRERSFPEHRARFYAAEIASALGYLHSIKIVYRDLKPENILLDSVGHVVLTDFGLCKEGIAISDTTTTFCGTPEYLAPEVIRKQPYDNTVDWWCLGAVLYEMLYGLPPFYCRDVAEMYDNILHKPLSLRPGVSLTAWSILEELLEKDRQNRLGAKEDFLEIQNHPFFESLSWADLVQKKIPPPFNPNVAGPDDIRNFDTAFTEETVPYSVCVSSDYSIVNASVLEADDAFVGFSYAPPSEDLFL
Procedure: Figure 3 Characterization of cellular activities of SGK3-PROTAC1 and cisSGK3-PROTAC1. (A) HEK293 cells were first treated for 8 h with 0.03–3 μM SGK3-PROTAC1 and cisSGK3-PROTAC1. One hour before lysis, cells were treated with 3 μM AZD5363. Lysates were subjected to immunoblot analysis with the indicated antibodies. […] Lysates were subjected to immunoblot analysis with the indicated antibodies. (C) HEK293 cells were treated for up to 48 h with SGK3-PROTAC1 (0.3 μM), and lysates were analyzed by immunoblot analysis using the indicated antibodies. (D) HEK293 cells were treated for 24 h with SGK3-PROTAC1. Cells were washed three times with DMEM to wash out the compound, and recovery of SGK3 expression protein was analyzed by immunoblot analysis. (E–G) As in A except that CAMA-1 (E), ZR-75-1 (F), and JIMT-1 (G) cells were employed rather than HEK293 cells.
Figure 5 SGK3-PROTAC1-mediated degradation of SGK3 inhibits Akt-independent activation of mTORC1 in cancer cell lines treated with Akt or PI3K inhibitors. CAMA-1 (A, C) or ZR-75-1 (B, D) were treated for 5 days with 1 μM GDC0941 (A, B) or 1 μM AZD5363 (C, D). Cells were treated with the compounds indicated for either 5 days or 8 h before lysis; cells were treated with the compounds indicated. Cell lysates were subject to immunoblot analysis with the indicated antibodies.
All cell treatments were carried out as described in figure legends, to a final DMSO concentration of 0.1% (v/v). Lysates were quantified. Immunoblotting was performed using standard procedures, described in brief below. Lysate concentration was quantified by Bradford Assay, and 10 μg of lysate was loaded in the LDS sample buffer for SDS-PAGE electrophoresis on Novex 4–12% Bis–Tris gels. Proteins were electrophoretically transferred onto nitrocellulose membranes (Amersham Protran 0.45 μm NC; GE Healthcare) at 80 V for 80 min on ice in transfer buffer. Transferred membranes were blocked with 5% (w/v) nonfat dry milk dissolved in TBS-T [20 mM Tris/HCl, pH 7.5, 150 mM NaCl, and 0.1% (v/v) Tween 20] at RT for 30 min, before incubation with the primary antibody overnight at 4 °C. The signal was produced with near-infrared secondary antibodies and detected using a Licor Biosciences Odyssey System, and the signal was quantified in Image Studio Lite.

[1] = system: mTORC1-mediated phosphorylation of S6K1 at Thr389; assay: mTORC1 signaling in ZR-75-1 cells treated with PI3K or Akt inhibitor, immunoblot; conditions: ZR-75-1, 5 days 1 μM GDC0941 or AZD5363; 0.3 μM
Procedure: We therefore aimed to investigate the effect that degradation of SGK3 would have on this resistance pathway and whether SGK3-PROTAC1 treatment could reverse inhibitor resistance. To investigate the effect of SGK3-PROTAC1 under these conditions, we treated CAMA-1 (Figure 5A,C) or ZR-75-1 (Figure 5B,D) for 5 days with either a class 1A PI3K inhibitor (GDC0941 1 μM;[38]Figure 5A,B) or an Akt inhibitor (AZD5363, 1 μM;[39]Figure 5C,D). These cells were treated with SGK3-PROTAC1 or cisSGK3-PROTAC1 (0.3 μM) for either 5 days in combination with the inhibitors or 8 h before lysis.
Figure 5 SGK3-PROTAC1-mediated degradation of SGK3 inhibits Akt-independent activation of mTORC1 in cancer cell lines treated with Akt or PI3K inhibitors. CAMA-1 (A, C) or ZR-75-1 (B, D) were treated for 5 days with 1 μM GDC0941 (A, B) or 1 μM AZD5363 (C, D). […]
All cell treatments were carried out as described in figure legends, to a final DMSO concentration of 0.1% (v/v). Lysates were quantified. […] Lysate concentration was quantified by Bradford Assay, and 10 μg of lysate was loaded in the LDS sample buffer for SDS-PAGE electrophoresis on Novex 4–12% Bis–Tris gels. […] The signal was produced with near-infrared secondary antibodies and detected using a Licor Biosciences Odyssey System, and the signal was quantified in Image Studio Lite.

| SGK1 level (SGK1; up to 10 μM) | Structure (SMILES) | SGK1 level (SGK1; 0.1 μM) | concentration inducing degradation of SGK3 (SGK3; ZR-75-1, 8 h) [µM] | SGK3 expression (SGK3) | phosphorylation of S6K1 at Thr389 [1] | degradation of SGK3 (SGK3; ZR-75-1, 8 h, 0.03–3 μM) |
| --- | --- | --- | --- | --- | --- | --- |
| not significantly impacted | Cc1ccc(F)c(S(=O)(=O)Nc2ccc(-c3nc(OC[C@H]4CN(CCOCCOCCOCC(=O)N[C@H](C(=O)N5C[C@H](O)C[C@H]5C(=O)NCc5ccc(-c6scnc6C)cc5)C(C)(C)C)CCO4)c4cn[nH]c4n3)cc2)c1 [DAT1] | – | – | – | – | – |
| – | Cc1ccc(F)c(S(=O)(=O)Nc2ccc(-c3nc(OC[C@H]4CN(CCCCCCOCCOCCOCC(=O)N[C@H](C(=O)N5C[C@H](O)C[C@H]5C(=O)NCc5ccc(-c6scnc6C)cc5)C(C)(C)C)CCO4)c4cn[nH]c4n3)cc2)c1 [SGK3-PROTAC1] | without effecting | > 0.1 | substantially reduced | suppressed | – |
| – | Cc1ccc(F)c(S(=O)(=O)Nc2ccc(-c3nc(OC[C@H]4CN(CCCCCCOCCOCCOCC(=O)N[C@H](C(=O)N5C[C@@H](O)C[C@H]5C(=O)NCc5ccc(-c6scnc6C)cc5)C(C)(C)C)CCO4)c4cn[nH]c4n3)cc2)c1 [cisSGK3-PROTAC1] | – | – | no significant effect | no significant effect | no impact |
